Data set [1] deals with SSTR2. As to conditions: cited from earlier work.
On the set-up of data set [2]: method as in PMID 12937948. As to conditions: comparison between tracers; cited from earlier work.
Data set [3] has as its system SSTR3. Conditions: cited from earlier work.
For data set [4], the system named is SSTR5. Conditions: cited from earlier work.
Data set [5] relates to SSTR in CH-157MN cells. Nature of the data set: Homologous competitive binding with [^125I]-somatostatin-28 in CH-157MN meningioma cells. As to conditions: 0.5 nM [^125I]-somatostatin-28, 37°C, 1 hour, mean ± SEM, three independent experiments in triplicate, read-out: IC50 (concentration of cold ligand that reduces specific binding of radioligand by 50%). Further details: species or system human. How it is done:
Affinity was determined from three independent experiments performed in triplicate and was measured by means of a homologous competitive binding experiment according to Motulsky and Neubig. The IC50 (concentration of cold ligand [somatostatin-28] that reduces specific binding of radioligand by 50%) was determined by competitive binding assays with [^125I]-somatostatin-28 (Amersham Pharmacia Biotech, UK) in CH-157MN meningioma cells. Briefly, cells were incubated into a 24-well cell culture plate (2–2.5×10^5 cells/well) at 37°C for 1 hour in a CO2 incubator with 0.5 nM [^125I]-somatostatin-28 (Amersham Pharmacia Biotech, UK) in the presence of increasing concentrations of somatostatin-28 (0.1 nM-10 µM) in 0.25 ml of binding media (DMEM, 2 mM L-glutamine, 50 units/ml penicillin and 50 µg/ml streptomycin). The reaction medium was aspirated after incubation. Cells were rinsed with 0.5 ml of ice-cold PBS twice and lysed in 0.5 ml of 1 N NaOH for five minutes. The activity in cells was measured in a Packard Cobra II gamma counter. The competitive binding curves were obtained by plotting the [^125I]-somatostatin-28 bound to cells against concentrations of cold ligand. IC50 and maximum numbers of binding sites (Bmax) were calculated using Origin 7.5 software (OriginLab Corporation, Northampton, Massachusetts, USA).

Data set [6] concerns xenografts of a human meningioma cell line (CH-157MN). Nature of the data set: Static PET/CT study: SUVmax and SUV ratios in mice bearing meningioma xenografts. It is filed as in vivo, NUDE NU/NU mice. As to conditions: for T/L SUV ratio (tumor-to-liver): SUVmax of tumor normalized to SUVmax of liver, p<0.001; for Visualization of flank tumors in PET/CT images: comparative PET/CT images of the same animal. How it is done:
(§1) Animals were scanned on a small-animal PET scanner (ARGUS PET-CT, SEDECAL, Madrid, Spain) under anesthesia (isoflurane, 3% induction and 1.5% maintenance in 100% O2). Imaging was performed 7–28 days after tumor cell inoculation. […] Half of the animals imaged with ^68Ga-DOTATOC were also imaged with the other two radiotracers in alternate days with respect to ^68Ga-DOTATOC (Figure 1).
(§2) Frames corresponding to the last 60 minutes of the study were summed to form a static image. Images were reconstructed using the 2D–OSEM (Ordered Subset Expectation Maximization) algorithm (16 subsets and two iterations), which yields a spatial resolution for this scanner of 1.45 mm Full Width at Half Maximum (FWHM), with a voxel size of 0.3875×0.3875×0.7750 mm^3. The energy window was 400–700 keV. Decay and deadtime corrections were applied.
Three 3D ROIs were drawn manually on the CT image, one for each tissue of interest (tumor, liver, and muscle), plus a background ROI outside the body area. Since the CT images are intrinsically registered to the PET images, the ROIs drawn on the CT image were directly overlaid on the PET image after correction for the different image sizes. The assessment of PET data included calculation of the maximum standard uptake value (SUVmax) on the static tomographic study and computation of the volume of distribution (Vt) from the dynamic study.
Tumor, muscle, and liver SUVmax values at 30–90 minutes post-injection were recorded. […] The SUVmax of the tumor lesions was normalized to the SUVmax of the liver (T/L) and muscle (T/M). The T/L and T/M SUV ratios were considered markers of the ability of the radiopharmaceutical to localize in the tumor.

Data set [7] shares this test system. Put plainly: Dynamic PET study: volume of distribution (Vt) by Logan graphical analysis. It is filed as in vivo, NUDE NU/NU mice. Conditions: two-tissue reversible compartmental model, comparison between radiotracers. The protocol: as §1, §2
Three 3D ROIs were drawn manually on the CT image, one for each tissue of interest (tumor, liver, and muscle), plus a background ROI outside the body area. Since the CT images are intrinsically registered to the PET images, the ROIs drawn on the CT image were directly overlaid on the PET image after correction for the different image sizes. […]
Vt was calculated from dynamic PET data using standard Logan graphical analysis for a two-tissue reversible compartmental model. […]

Setting [8] is: comparison between radiotracers.

Read-outs that look alike come from different tables or passages of the source.

Consider “^68Ga-DOTA-Nal^3-octreotide [^68Ga-DOTANOC]”, for which the “Affinity for SSTR2” value in data set [1] (comparison with ^68Ga-DOTATOC) is reported as “higher affinity for SSTR2 than ^68Ga-DOTATOC”. In data set [2], the Lipophilicity entry was “more lipophilic than ^68Ga-DOTATATE and ^68Ga-DOTATOC”. For the same substance, the “Affinity for SSTR3” value in data set [3] is “has affinity for SSTR3 and SSTR5”. The “Affinity for SSTR5” value in data set [4] was “has affinity for SSTR3 and SSTR5”.
For the substance somatostatin-28, in data set [5], the IC50 worked out at 63.7 ± 32.3 nM.
Take “^68Ga-DOTA -Tyr^3-octreotide [^68Ga-DOTATOC]”: the “T/L SUV ratio (tumor-to-liver)” value in data set [6] (setting [8]) is “No differences were found between ^68Ga-DOTATATE and ^68Ga-DOTATOC”. Moreover, the “Visualization of flank tumors in PET/CT images” value in data set [6] was “better visualized”. Besides, the “Affinity for SSTR2” value in data set [1] is given as “high affinity”.
On to “^68Ga-DOTA-Tyr^3-octreotate [^68Ga-DOTATATE]”, for which the “T/L SUV ratio (tumor-to-liver)” value in data set [6] (setting [8]) is “No differences were found between ^68Ga-DOTATATE and ^68Ga-DOTATOC”. The “T/M SUV ratio (tumor-to-muscle)” value in data set [6] (SUVmax of tumor normalized to SUVmax of muscle, comparison between radiotracers) was “higher than that of ^68Ga-DOTATOC (p<0.01) and ^68Ga-DOTANOC (p<0.05)”. Further, the “Visualization of flank tumors in PET/CT images” value in data set [6] was “better visualized”. Further, in data set [7], the Vt tumor entry was “higher with ^68Ga-DOTATATE than with ^68Ga-DOTANOC and relatively similar to that of ^68Ga-DOTATOC”. Besides, the “Affinity for SSTR2” value in data set [1] is recorded as “high affinity”.
